Tests used:
[1] = Thermogravimetric analysis (TGA), thermal decomposition; type: physicochemical
Procedure: In this disclosure, it is further reported that the amount of active ATRA is conserved after four weeks of storage at 40° C., in the absence of any further toxic antioxidant, which is an advantage to the previously reported art such as US 20190015366 A1 and WO2015092602A1, that require the presence of the toxic benzoyl peroxide, which have been reported as an inductor of photo-carcinogenesis in hairless mice after solar radiation. Similar art was reported in US20100166852A1. In the present embodiments, the microparticles made of HA−ATRA were stored for prolonged times in the presence of air the microparticles are stable, while the obtained powders degraded faster (FIGS. 2 and 4). […] In this disclosure, the thermal decomposition of the HA−ATRA microparticles was compared with the native polysaccharide and pure retinoic acid using thermogravimetric analysis (TGA) according to de Mendonça CMS, de Barros Lima IP, Aragão CFS, Gomes APB in Thermal compatibility between hydroquinone and retinoic acid in pharmaceutical formulations. Journal of Thermal Analysis and calorimetry 2014; 115:2277-85.
In brief, the TGA (Thermogravimetric analyses) was performed on the microparticles on a […]. About 2 mg of powder was accurately weighed samples were loaded into aluminum pans and analyzed. […]

[2] = tested on: HMGCS1 mRNA expression in HaCaT keratinocyte cells; assay: Expression of cholesterol synthesis gene HMGCS1 (QRT-PCR); type: cell-based; settings: HaCaT keratinocytes, 48 hours
Procedure: (§1) This example illustrates the expressional changes in keratinocyte cholesterol metabolism pathway components (upon treatment with HA−ATRA (prepared as described in examples 5, 9), unbound ATRA and HA (HA+ATRA), hyaluronan (HA), untreated control (CTRL), retinoic isomers (13-cis-RET) and 9 cis (9-cis-RET). The HaCaT keratinocyte cells were individually treated with the compounds described below for 48 hours and sampled in the indicated times. The mRNA expression of HMGCS1, SQLE and DHRS3 was analyzed with quantitative real-time PCR (QRT-PCR) using a StepOnePlus (ThermoFisher, Waltham, Mass., USA). Briefly, 500 ng of total RNA was transcribed to cDNA (High-Capacity cDNA Reverse Transcription Kit, ThermoFisher, Waltham, Mass., USA). Approximately 5 ng of cDNA was used for QRT-PCR reaction in 10 μl volume. The TaqMan assays (all from ThermoFisher, Waltham, Mass., USA) used were: HMGCS1 (Hs00940429_m1), SQLE (Hs01123768_m1), DHRS3 (Hs01044021_m1) and RPL13A (Hs04194366_g1). Duplicate reaction tubes were set up for each sample. All expression values for HMGCS1, SQLE and DHRS3 were related to the amount of the housekeeping gene RPL13A to correct for variations in RNA levels and efficiency in cDNA synthesis. Regarding the analyzed enzyme involved in cholesterol synthesis, only treatment with microparticles of HA−ATRA increased the expression of HMGCS1 and SQLE, all samples containing retinoids increased expression of positive control DHRS3 (FIG. 10). However, microparticles HA−ATRA can upregulate cholesterol synthesis gene HMGCS1 like when the molarity of the retinoic acid bound to HA is the same in both treatments, this is shown in FIG. 11.

[3] = tested on: SQLE mRNA expression in HaCaT keratinocyte cells; assay: Expression of cholesterol synthesis gene SQLE (QRT-PCR); type: cell-based; settings: HaCaT keratinocytes, 48 hours
Procedure: as §1

Structure (SMILES)	temperature range of decomposition (three stages, TG curve) [1]	expression of HMGCS1 [2]	expression of SQLE [3]
CC(C=CC1=C(C)CCCC1(C)C)=CC=CC(C)=CC(=O)O [ATRA, 3,7-dimethyl-9-(2,6,6-trimethyl-1-cyclohexene-1-yl)-2,4,6,8-nonatetraenoic acid]	185−609 °C	did not induce	did not induce
CC1=C(/C=C/C(C)=C\C=C\C(C)=C\C(=O)O)C(C)(C)CCC1 [9-cis retinoic, 9-cis retinoic acid]	–	neither unbound 9-cis retinoic nor 13-cis retinoic acid were able to upregulate	neither unbound 9-cis retinoic nor 13-cis retinoic acid were able to upregulate
CC1=C(/C=C/C(C)=C/C=C/C(C)=C\C(=O)O)C(C)(C)CCC1 [13-cis retinoic acid]	–	neither unbound 9-cis retinoic nor 13-cis retinoic acid were able to upregulate	neither unbound 9-cis retinoic nor 13-cis retinoic acid were able to upregulate

From patent US20220249352A1, “MICROPARTICLES BASED ON ESTER DERIVATIVES OF HYALURONAN, METHOD OF PRODUCTION, COMPOSITION COMPRISING THEREOF AND USE THEREOF” (CONTIPRO A.S., priority 2019, published 2022)
